# Test results reported in patent US11180762B2, “Methods and compositions for the treatment of cancer” (CHILDREN'S MEDICAL CENTER CORPORATION, priority 2014, dated 2021).
# B1: AKT1 EpCAM-AsiC: EpCAM aptamer-AKT1 siRNA chimera, sense SEQ ID NO: 23, antisense SEQ ID NO: 24 (nucleic acid)
# sense: GCGACUGGUUACCCGGUCGUUGCUGGAGAACCUCAUGCUGTT
# antisense: CAGCAUGAGGUUCUCCAGCTT
# modifications: chemistry not fully specified
# Experiments:
# Format in all cases: cell-based, human
# breast cancer cell lines [1] = assay: Sphere (mammosphere) formation assay
# Experimental: (§1) For colony formation assay, 1,000 viable cells were treated for 6 h in round bottom 96-well plates and then transferred to 10-cm plates in serum-containing medium. Medium was replaced every 3 d. After 8-14 d, cells were fixed in methanol (−20 C) and stained with crystal violet. For sphere formation assay, 1,000/ml viable cells were treated for 6 h in round bottom 96-well plates and then cultured in suspension in serum-free DMEM/F12 1:1 (Invitrogen), supplemented with EGF (20 ng/ml, BD Biosciences), B27 (1:50, Invitrogen), 0.4% bovine serum albumin (Sigma) and 4 μg/ml insulin (Sigma). Spheres were counted after 1 or 2 weeks.
# breast cancer cell lines [2] = assay: Colony formation assay; details: AsiC 4 uM, paclitaxel 100 nM
# Experimental: as §1
# AKT1 = AKT1 mRNA and protein knockdown in breast cancer cell lines; set-up: AKT1 protein silencing by flow cytometry: dose or concentration left out as unconfirmed; details: for AKT1 mRNA and protein knockdown across cell lines: basal-A, luminal, basal-B lines, fibroblasts
# Experimental: For uptake and silencing treatment, cells were plated at low density (10,000 cells/well in 96-well plates) and treated immediately. All AsiC and siRNA treatments were performed in either OptiMEM or WIT medium. Cell viability was assessed by CellTiter-Glo (Promega) or by Trypan-Blue staining in 96-well plates.
# For flow cytometry, cells were stained as previously described (Yu, F. et al (2007). let-7 Regulates Self Renewal and Tumorigenicity of Breast Cancer Cells. Cell 131, 1109-1123. ), briefly, direct immunostaining of EpCAM and AKT1 was performed using 1:50 dilutions of hAb for 30-60 minutes at 4° C. (BioLegend/BD). Cells were stained in PBS containing 0.5% FCS, 1 mM EDTA, and 25 mM HEPES. Samples were washed twice in the same buffer. Data was acquired using FACS-Canto II (BD Biosciences). Analyses were performed in triplicate and 10,000 gated events/sample were counted. All data analysis was performed using FlowJo (Treestar Inc.).
# qRT-PCR analysis was performed as described (Petrocca, F., et al. (2008). E2F1-regulated microRNAs impair TGFbeta-dependent cell-cycle arrest and apoptosis in gastric cancer. Cancer Cell 13, 272-286). Briefly, total RNA was extracted with Trizol (Invitrogen) and cDNA prepared from 1000 ng total RNA using Thermoscript RT kit (Invitrogen) as per the […] (Applied Biosystems) and a BioRad C1000 Thermal Cycler (Biorad). Relative CT values were normalized to GAPDH and converted to a linear scale.
molecule,measurement,setting,value
"CC(=O)O[C@H]1C(=O)[C@@]2(C)[C@H]([C@H](OC(=O)c3ccccc3)[C@]3(O)C[C@H](OC(=O)[C@H](O)[C@@H](NC(=O)c4ccccc4)c4ccccc4)C(C)=C1C3(C)C)[C@]1(OC(C)=O)CO[C@@H]1C[C@@H]2O [paclitaxel, reference compound]","sphere/mammosphere formation, cell lines tested",breast cancer cell lines [1],reduced sphere-formation in all
same,"colony formation, EpCAM+ basal-A and luminal lines",breast cancer cell lines [2],resistant clones emerged
same,"colony formation, EpCAM− basal-B lines",breast cancer cell lines [2],reducing colony formation but still resistant clones invariably emerged
same,"colony formation, cell lines tested",breast cancer cell lines [2],decreased colony formation in all cells lines
"AKT1 siRNA: AKT1 siRNA, sense SEQ ID NO: 29, antisense SEQ ID NO: 30 (sense GCUGGAGAACCUCAUGCUG; antisense CAGCAUGAGGUUCUCCAGC; listed as RNA, chemistry not given here) [reference compound]",AKT1 mRNA and protein knockdown across cell lines,AKT1,comparably knocked down expression in all the cell lines studied
B1,AKT1 protein silencing by flow cytometry,AKT1; EpCAM-AsiC for 5 days,specific AKT1 protein silencing
same,AKT1 mRNA and protein knockdown across cell lines,AKT1; listed as EpCAM-AsiC targeting AKT1,decreased AKT1 mRNA and protein levels
same,AKT1 mRNA and protein knockdown across cell lines,AKT1; listed as EpCAM-AsiCs targeting AKT1,only in EpCAM^bright luminal and basal-A TNBCs
